# From US11434267B2, “Peptides having reduced toxicity that stimulate cholesterol efflux” (The Regents of the University of California, priority 2013, dated 2022)
# Positions of bridges follow the written chain, without caps; N, C: chain ends. Non-standard residues stand in square brackets, D forms with d. No end group written: not given here. R8 = C=CCCCCCC[C@@](C)(N)C(=O)O; Cit = NC(=O)NCCC[C@H](N)C(=O)O; S5 = C=CCCC[C@](C)(N)C(=O)O
# Experiments:
# ABCA1 [1] = molecular target: T1, ABCA1 (Mus musculus, UniProt P41233); experiment: ABCA1-dependent cholesterol efflux from [3H]cholesterol-labeled J774 macrophages with and without cAMP; format: cell-based; conditions: J774, cAMP vs no cAMP; 10 μg/ml lipid-free
# T1 construct: treated (18 h) with a cAMP analog to induce ABCA1 protein expression; endogenous in cells; host or cells: J774 macrophages
# C57Bl/6 mice = format: in vivo; conditions: 300 mg/kg IP, male chow-fed C57Bl/6 mice; for TG elevating effect (plasma TG, cholesterol): 4 and 6 h
# Description: The high-dose cytotoxic response of ATI-5261 observed in rat, rabbit and cynomolgus monkey is additionally recapitulated in mice (FIG. 4). Male chow-fed C57bl/6 mice were injected intraperitonelly (IP) with 30 or 300 mg/kg of lipid-fee ATI-5261. Blood was collected via the retro-orbital plexus 4 h after peptide injection and plasma subsequently obtained for measurement of CPK (Panel A) and ALT and AST activities (Panel B, ALT left bars, AST, right bars). Values are means±SD, n=4 mice per group.
# This example illustrates that aromatic phenylalanine residues associated with the non-polar surface of ATI-5261 contributed to the majority of the peptide toxicity (FIG. 5). […] Blood was collected via retro-orbital plexus 4 h after injection for isolation of plasma. Levels of plasma CPK (Panel A), ALT (panel B) and AST (Panel C) were determined as described in FIG. 1. Values are means±SD, n=4 mice per group.
# The concentrations of plasma lipids in C57Bl/6 mice following administration of the aliphatic analogs of ATI-5261 was also determined. […] All values (mg/dl) are means±SD, n=4, determined at 4 and 6 h post treatment with peptide.
# [2] = scaled values = (raw log(P) + 2.061)/4.484; cited from earlier work
# ABCA1 [3] = molecular target: T1, ABCA1; experiment: ABCA1-dependent cholesterol efflux from [3H]cholesterol-labeled J774 macrophages with and without cAMP; format: cell-based; conditions: cAMP treated J774, dose response, 4 h
# Excerpt: Suitable cholesterol efflux assays are described in, e.g., Bielicki, J. K and Oda, M. N., Biochemistry, 41:2089-2096 (2002); Jia et al., Biochem. Biophys. Res. Common., 297:206-213 (2002). In some embodiments, a polypeptide known to mediate cholesterol efflux (e.g., helix 9/10 of Apo A-I) is used to screen for additional mediators of cholesterol efflux in a cell based assay. For example, cell lines in which cholesterol efflux can be enhanced using a cAMP analog that up-regulates ABCA1 protein expression (e.g., J774 macrophages) can conveniently be used to assess the ability of a polypeptide of the present invention to mediate cholesterol efflux. The cells are incubated with labeled cholesterol (e.g., [^3H]cholesterol) under conditions appropriate for cholesterol uptake by the cells. Thus, cAMP or cAMP analogs (e.g., CPT-cAMP) are incubated with the cells for a suitable time before the initiation of cellular cholesterol efflux, i.e., prior to contacting the cells with a test polypeptide. Measurement of labeled cholesterol appearing in the medium is used to determine the cholesterol efflux mediating activity of the test polypeptide.
# Aliphatic analogs of ATI-5261 lacking phenylalanine residues retained potent ABCA1 selective cholesterol efflux activity (FIG. 7). J774 macrophages were labeled (48 h) with [^3H]cholesterol and treated (18 h) with a cAMP analog to induce ABCA1 protein expression; cells incubated in the absence of cAMP (left bars) served as controls. […] Peptides were used at a concentration of 30 μg/ml, which was maximal for promoting cholesterol efflux activity. Panel B—Dependence of cholesterol efflux on the concentration of peptides. […] Results are expressed as the difference in cholesterol efflux (%/4 h) observed using cAMP treated vs. non-treated J774 cells. Values are means±SD, n=3.
# T1 sequence (P41233 whole entry): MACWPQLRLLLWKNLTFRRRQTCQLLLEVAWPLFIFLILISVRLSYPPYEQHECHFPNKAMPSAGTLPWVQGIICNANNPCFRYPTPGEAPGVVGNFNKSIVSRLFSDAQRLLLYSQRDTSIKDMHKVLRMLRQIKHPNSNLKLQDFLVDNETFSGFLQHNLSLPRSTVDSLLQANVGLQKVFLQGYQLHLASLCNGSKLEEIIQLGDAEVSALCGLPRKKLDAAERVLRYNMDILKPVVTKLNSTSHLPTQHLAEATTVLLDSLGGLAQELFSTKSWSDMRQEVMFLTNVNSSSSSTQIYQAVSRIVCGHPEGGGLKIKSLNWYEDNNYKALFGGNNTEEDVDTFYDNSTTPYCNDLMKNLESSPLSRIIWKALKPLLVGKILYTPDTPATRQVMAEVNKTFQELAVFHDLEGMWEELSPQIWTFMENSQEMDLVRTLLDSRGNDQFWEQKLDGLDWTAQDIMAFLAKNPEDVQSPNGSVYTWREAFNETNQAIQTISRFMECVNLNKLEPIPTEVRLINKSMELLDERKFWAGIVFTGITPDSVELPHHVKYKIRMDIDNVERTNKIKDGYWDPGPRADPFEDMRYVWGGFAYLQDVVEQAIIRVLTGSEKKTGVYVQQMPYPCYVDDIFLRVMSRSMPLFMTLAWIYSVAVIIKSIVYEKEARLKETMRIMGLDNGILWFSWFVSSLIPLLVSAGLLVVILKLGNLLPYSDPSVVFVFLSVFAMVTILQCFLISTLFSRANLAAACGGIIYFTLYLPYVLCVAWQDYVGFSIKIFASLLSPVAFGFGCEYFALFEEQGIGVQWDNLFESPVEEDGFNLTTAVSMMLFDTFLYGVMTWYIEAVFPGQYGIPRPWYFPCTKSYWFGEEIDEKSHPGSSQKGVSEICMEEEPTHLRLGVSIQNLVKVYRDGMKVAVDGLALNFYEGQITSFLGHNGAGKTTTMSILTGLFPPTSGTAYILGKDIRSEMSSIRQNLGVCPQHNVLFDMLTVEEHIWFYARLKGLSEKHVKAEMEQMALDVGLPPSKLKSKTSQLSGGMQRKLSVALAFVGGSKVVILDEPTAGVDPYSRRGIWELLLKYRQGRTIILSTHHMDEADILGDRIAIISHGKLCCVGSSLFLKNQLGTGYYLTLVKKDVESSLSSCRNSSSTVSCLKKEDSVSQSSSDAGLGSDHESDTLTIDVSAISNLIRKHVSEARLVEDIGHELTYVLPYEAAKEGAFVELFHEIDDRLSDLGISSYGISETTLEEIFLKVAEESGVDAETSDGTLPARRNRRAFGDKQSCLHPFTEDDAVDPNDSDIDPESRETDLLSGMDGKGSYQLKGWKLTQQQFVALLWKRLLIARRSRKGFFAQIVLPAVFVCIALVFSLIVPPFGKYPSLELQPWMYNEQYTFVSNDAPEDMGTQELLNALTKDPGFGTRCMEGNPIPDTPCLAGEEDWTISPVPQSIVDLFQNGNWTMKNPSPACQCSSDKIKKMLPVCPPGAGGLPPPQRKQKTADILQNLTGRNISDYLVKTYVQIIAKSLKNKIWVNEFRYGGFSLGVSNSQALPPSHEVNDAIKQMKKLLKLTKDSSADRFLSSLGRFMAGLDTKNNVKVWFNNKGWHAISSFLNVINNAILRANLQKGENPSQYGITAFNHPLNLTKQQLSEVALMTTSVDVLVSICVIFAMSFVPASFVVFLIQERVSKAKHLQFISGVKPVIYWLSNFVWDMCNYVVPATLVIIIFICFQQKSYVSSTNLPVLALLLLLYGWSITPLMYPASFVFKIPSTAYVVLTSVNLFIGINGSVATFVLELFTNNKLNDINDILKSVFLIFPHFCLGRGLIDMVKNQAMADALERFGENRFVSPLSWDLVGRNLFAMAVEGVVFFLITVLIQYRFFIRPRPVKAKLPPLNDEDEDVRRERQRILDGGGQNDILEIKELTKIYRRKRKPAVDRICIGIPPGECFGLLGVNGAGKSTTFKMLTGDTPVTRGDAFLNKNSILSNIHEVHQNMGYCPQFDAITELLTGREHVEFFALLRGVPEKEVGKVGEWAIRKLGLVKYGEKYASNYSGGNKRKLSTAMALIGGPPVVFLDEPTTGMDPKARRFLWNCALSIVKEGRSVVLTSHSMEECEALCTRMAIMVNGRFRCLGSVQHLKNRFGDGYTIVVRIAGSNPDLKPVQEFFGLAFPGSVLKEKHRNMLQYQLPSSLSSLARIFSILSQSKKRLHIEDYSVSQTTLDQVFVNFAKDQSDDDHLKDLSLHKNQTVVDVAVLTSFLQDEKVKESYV
compound,measurement,setting,value
CS6259: leucine form of ATI-5261 with glutamine at positions 3 and 23 and a chemical staple (EVQSKLEEWLAAL[R8]ELAEEL[S5]AQLKS; staple 14-21),ABCA1-dependent cholesterol efflux activity,ABCA1 [1],highly dependent on ABCA1 comparable to ATI-5261
EARSKAEEWLAALRELAEELLARAKS [Peptide T5505-12],"TG elevating effect (plasma TG, cholesterol)",C57Bl/6 mice,produced low toxicity and greatly ablated TG elevating effects
same,"cytotoxic/toxic response (plasma CPK, ALT, AST)",C57Bl/6 mice; 4 h,produced low toxicity and greatly ablated TG elevating effects
C[C@H](N)C(=O)O [Alanine],Hydrophobicity,[2],0.616
EVNSKLEEWLAALNELAEELLARLKS [Peptide T5766-4],muscle toxicity (plasma CPK activity),C57Bl/6 mice; 4 h,greatly reduced the increase in CPK and TG elevating effects
"T5505-9: ATI-5261 analog with L24A; W9L substitutions (EVRSKLEELLAALRELAEELLARAKS; synthetic amphipathic alpha-helix cholesterol efflux peptide T5505-9, LeuATI-5261 analog)","TG elevating effect (plasma TG, cholesterol)",C57Bl/6 mice,markedly reduced the increase in plasma CPK and AST as well as TG elevating activity
same,muscle toxicity (plasma CPK activity),C57Bl/6 mice; 4 h,markedly reduced the increase in plasma CPK and AST as well as TG elevating activity
same,plasma ALT / AST,C57Bl/6 mice; 4 h,markedly reduced the increase in plasma CPK and AST as well as TG elevating activity
same,Km for cholesterol efflux,ABCA1 [3],0.58 µg/mL
same,peptide concentration at saturation of cholesterol efflux,ABCA1 [3],~3 µg/mL
EVRSKLQEWFAAFREFAQEFLARLKS [Peptide T5554-1],"cytotoxic/toxic response (plasma CPK, ALT, AST)",C57Bl/6 mice; 4 h,produced a large increase in the toxic response
EVRSKLEEWIAAIREIAEEILARLKS [Peptide T6991-1],muscle toxicity (plasma CPK activity),C57Bl/6 mice; 4 h,displayed little or no cytotoxic properties related to CPK elevations
CC[C@H](C)[C@H](N)C(=O)O [Isoleucine],Hydrophobicity,[2],0.943
NC(=O)C[C@H](N)C(=O)O [Asparagine],Hydrophobicity,[2],0.236
NCCCC[C@H](N)C(=O)O [Lysine],Hydrophobicity,[2],0.283
T6275-5: citrulline form of LeuATI-5261 with single citrulline14→L substitution (EV[Cit]SKLEEWLAALLELAEELLARLKS) [Peptide T6275-5],peptide concentration at saturation of cholesterol efflux,ABCA1 [3],3 µg/mL
EVRSKLEEWLAALRELAEELAARLKS [Peptide T4883-7],"TG elevating effect (plasma TG, cholesterol)",C57Bl/6 mice,further reduced cytotoxic response and TG elevating effects
same,"cytotoxic/toxic response (plasma CPK, ALT, AST)",C57Bl/6 mice; 4 h,further reduced cytotoxic response and TG elevating effects
same,muscle toxicity (plasma CPK activity),C57Bl/6 mice; 4 h,sufficient to eliminate the residual muscle toxicity
N[C@@H](Cc1c[nH]c2ccccc12)C(=O)O [Tryptophan],Hydrophobicity,[2],0.878
CS6257: ATI-5261 with uncharged alanine at positions 3 and 23 and a chemical staple (EVASKLEEWFAAF[S5]EFAEEF[R8]AALKS; staple 14-21),ABCA1-dependent cholesterol efflux activity,ABCA1 [1],highly dependent on ABCA1 comparable to ATI-5261
C[C@@H](O)[C@H](N)C(=O)O [Threonine],Hydrophobicity,[2],0.450
N[C@@H](Cc1ccccc1)C(=O)O [Phenylalanine],Hydrophobicity,[2],1.00
EVRSKLEEWLAALRELAEELLARLKS [Peptide T5055-13],"TG elevating effect (plasma TG, cholesterol)",C57Bl/6 mice,greatly attenuated
same,muscle toxicity (plasma CPK activity),C57Bl/6 mice; 4 h,residual toxicity
EARSKAEEWLAALLELAEELLARAKS [Peptide T5211-2],"cytotoxic/toxic response (plasma CPK, ALT, AST)",C57Bl/6 mice; 4 h,displayed little or no toxic responses and low TG in plasma
EVRSKLEEWFAAFREFAEEFLARL [Peptide T5766-5],"cytotoxic/toxic response (plasma CPK, ALT, AST)",C57Bl/6 mice; 4 h,appeared to reduce the toxic responses
same,muscle toxicity (plasma CPK activity),C57Bl/6 mice; 4 h,greatly reduced muscle toxicity
N[C@@H](Cc1ccc(O)cc1)C(=O)O [Tyrosine],Hydrophobicity,[2],0.880
EVQSKLEEWLAALQELAEELLARLKS [Peptide T5766-3],muscle toxicity (plasma CPK activity),C57Bl/6 mice; 4 h,greatly reduced the increase in CPK and TG elevating effects
N[C@@H](CCC(=O)O)C(=O)O [Glutamate],Hydrophobicity,[2],0.043
CC(C)[C@H](N)C(=O)O [Valine],Hydrophobicity,[2],0.825
EVRSKLEEWFAAFREFAEEFLARLNS [Peptide T5594-4],muscle toxicity (plasma CPK activity),C57Bl/6 mice; 4 h,greatly reduced muscle toxicity
T7983-11: Y26 analog of T6991-2 (S26→Y for 125I labeling) (EV[Cit]SKLEEWIAAI[Cit]EIAEEILARLKY) [Peptide T7983-11],ABCA1-dependent cholesterol efflux activity,ABCA1 [1],"functional, mediating high-levels of cholesterol efflux in an ABCA1-dependent manner"
same,peptide concentration at saturation of cholesterol efflux,ABCA1 [3],3 µg/mL
CSCC[C@H](N)C(=O)O [Methionine],Hydrophobicity,[2],0.738
"T5594-5: ATI-5261 analog with all lysine residues (R>K substitutions) (EVKSKLEEWFAAFKEFAEEFLAKLKS; synthetic amphipathic alpha-helix cholesterol efflux peptide T5594-5, ATI-5261 analog)","cytotoxic/toxic response (plasma CPK, ALT, AST)",C57Bl/6 mice; 4 h,displayed cytotoxic and TG elevating activity
N=C(N)NCCC[C@H](N)C(=O)O [Arginine],Hydrophobicity,[2],0.000
NCC(=O)O [Glycine],Hydrophobicity,[2],0.501
"T5554-5: E→Q analog bearing citrulline substitutions, net charge −1 (EV[Cit]SKLQEWFAAF[Cit]EFAQEFLARLKS) [Peptide T5554-5]","cytotoxic/toxic response (plasma CPK, ALT, AST)",C57Bl/6 mice; 4 h,"retained strong toxic (CPK, ALT, and AST) and TG elevating responses"
O=C(O)[C@@H]1CCCN1 [Proline],Hydrophobicity,[2],0.711
CS6256A: ATI-5261 with glutamine at positions 3 and 23 and a chemical staple (EVQSKLEEWFAAF[S5]EFAEEF[R8]AQLKS; staple 14-21),ABCA1-dependent cholesterol efflux activity,ABCA1 [1],highly dependent on ABCA1 comparable to ATI-5261
T5554-4: E→Q analog bearing citrulline substitutions (EV[Cit]SKLQEWFAAFREFAEEFLARLKS) [Peptide T5554-4],"cytotoxic/toxic response (plasma CPK, ALT, AST)",C57Bl/6 mice; 4 h,"retained strong toxic (CPK, ALT, and AST) and TG elevating responses"
N[C@@H](Cc1c[nH]cn1)C(=O)O [Histidine],Hydrophobicity,[2],0.165
EVRSKLEEWLAALRELAEELLARAKS [Peptide T4883-6],"TG elevating effect (plasma TG, cholesterol)",C57Bl/6 mice,further reduced cytotoxic response and TG elevating effects
same,"cytotoxic/toxic response (plasma CPK, ALT, AST)",C57Bl/6 mice; 4 h,further reduced cytotoxic response and TG elevating effects
same,muscle toxicity (plasma CPK activity),C57Bl/6 mice; 4 h,sufficient to eliminate the residual muscle toxicity
